Tested on: traumatic edema
Assay: Topical application of GTN to traumatic edema, general observation
Assay type: in vivo
Description: The detumescence of the swelling associated with a traumatic edema is accelerated; instead of darkening of the skin, the healing occurs with a green, followed by a yellow, coloration of the affected skin area.

O=[N+]([O-])OCC(CO[N+](=O)[O-])O[N+](=O)[O-] [GTN, glyceryl trinitrate]
typical swelling and darkening of the affected skin sites (1.2 to 6 mg GTN on day of injury, then 0.8 to 1.6 mg GTN daily, topical): reduces and/or prevents
individual healing phases (compared to an untreated edema): significantly shortened
reduction of overall healing period for the treated edemas (compared to an untreated edema): one-half
healing of traumatic edema (topically applied): greatly accelerates

From patent publication US9693983B2, “Use of glyceryl trinitrate for treating traumatic edema” (G. Pohl-Boskamp GmbH & Co. KG, priority 2010, dated 2017)
